Patent EP0016746A1, “New therapeutically active spirocycloalkylamines and pharmaceutical preparations comprising such compounds” (priority 1979, dated 1980)

Tests used:
[1] = test system: central dopamine (DA) receptors; experiment: Blockade of apomorphine induced stereotypies and hyperactivity in rats; assay type: in vivo, Male Sprague-Dawley rats; settings: for ED50 Hyper-activity / ED50 Stereo-typies: i.p. 60 min prior to apomorphine hydrochloride 1 mg/kg s.c.; for ED50 Hyper-activity: dose reducing number of animals showing hyperactivity by 50% over 60 min observation; for ED50 Stereo-typies: dose reducing strength of stereotypies by 50% over 60 min observation
From the text: The DA receptor blockade as measured by different in vitro anc in vivo techniques correlate roughly with the antipsychotic efficacy. The blockade of the behavioural effects induced by the DA receptor agonist apomorphine is highly correlated to the antipsychotic effect of various neuroleptics. The ability of potential neuroleptics to block the apomorphine induced behaviours may thus be a valuable predictor of the anti- psychotic efficacy in man.
Male Sprague-Dawley rats, weighing 250-300 g, were used. […] The compounds were injected intraperitoneally 60 min. prior to apomorphine hydrochloride (1 mg/kg dissolved in saline), which was injected subcutaneously into the neck. […] Directly after the injection the animals were placed in the cages, one in each cage. Scoring of the stereotypies was performed by a modified version (Fuxe et al. in Rhinencephale Neurotransmetteurs et Psychoses, by G. Masson, Paris 1977, p. 253) of the system introduced by Costall and Naylor (Eur. J. Pharmacol. 24 8 (1973).
The number of animals, displaying hyperactivity caused by apomorphine, was scored. Each group consisted of 6-8 animals. Saline controls were always run simultaneously. The EO50's for stereotypies are the doses which reduce the strength of the stereotypies by 50% over the observation period of 60 min. The Ed50's for hyperactivity are the doses which reduce the number of animals showing hyperactivity by 50% over the observation period of 60 min. EO50's were calculated from log dose-curves from 4-6 levels with 6-8 animals per dose level. The test compounds were dissolved in saline or water.

[2] = Heart effects: arterial blood pressure, heart rate and electrocardiograms after consecutive increasing intravenous doses in restrained rats; assay type: in vivo, Male Sprauge-Dawley rats; settings: for Minimum doses causing changes in: Cardiogram intervals PR / Minimum doses causing changes in: Cardiogram intervals QRS / Minimum doses causing changes in: Cardiogram intervals QT / Minimum doses causing changes in: Heart rate (Decrease) / Minimum doses causing changes in: Mean arterial blood pressure (Decrease): change of more than 15% from values before administration
Description: Male Sprauge-Dawley rats weighing 290-360 grams were used. The animals were prepared for recording the arterial blood pressure through a catheter implanted into the abdominal aorta and for injection of drugs through a catheter implanted into the abdominal vena cava. Both catheters were exteriorized at the base of the neck. At least five days were allowed for recovery after the operation.
The animals were kept immobilized in restraining cages during the experiment. The arterial blood pressure was continuously monitored on a Grass Model 7 Polygraph via a Statham P23Gc transducer. Electrocardiograms were taken from subcutaneously placed thin needle electrodes and recorded on a Mingograph 34 (Elema-Schänander AB, Sweden).
Groups of rats were given consecutive increasing intravenous doses of the test compounds from the dose scale: 0.25, 0.5, 1, 2, 4, 8, 16, 32 and 64 […]. The test compounds were injected over a period of 30 seconds at an interval of five minutes at doses of 0.25-8 […] and with an interval of 15 minutes at higher dose ranges.
The minimum doses that caused changes in mean arterial blood pressure, heart rate, PR, QRS and QT intervals of more than 15% from values before administration were arbitrarily defined as a drug effect.

[3] = i.p., rats, comparison in words

Row | SMILES | ED50 Hyper-activity [1] | ED50 Stereo-typies [1] | Minimum doses causing arrhythmias (Second degree AV-block) [2] | Minimum doses causing changes in: Cardiogram intervals PR [2] | Minimum doses causing changes in: Cardiogram intervals QRS [2] | Minimum doses causing changes in: Cardiogram intervals QT [2] | Minimum doses causing changes in: Heart rate (Decrease) [2] | Minimum doses causing changes in: Mean arterial blood pressure (Decrease) [2] | activity against apomorphine induced behaviours (in words) ([1]; i.p., rats, summary of Table 1) | potency to block apomorphine induced hyperactivity compared with clozapine [1, 3] | potency to block the stereotypies compared with clozapine [1, 3]
1 | CN1CCN(C2=Nc3cc(Cl)ccc3Nc3ccccc32)CC1 [Clozapine, reference compound] | 26 µmol/kg | 104 µmol/kg |  |  |  |  |  |  |  |  | 
2 | CNC1C=CC2(CC1)c1ccccc1CCc1ccc(Cl)cc12 (stereo not shown) [Example 3, 3-Chloro-10,11-dihydro-N-methylspiro-[5H-dibenzo[a,d]-cyclohBptene-5,1'-cyclohex-2-Bn]-4'-amine] | 15 µmol/kg | 65 µmol/kg | 16 µmol/kg | 16 µmol/kg | 8 µmol/kg | 16 µmol/kg | 16 µmol/kg | 8 to 16 µmol/kg | active |  | 
3 | CN(C)C1C=CC2(CC1)c1ccccc1CCc1ccc(Cl)cc12 (stereo not shown) [-N(CH3)2, reference compound] | 6.4 µmol/kg | 35 µmol/kg | 2 to 4 µmol/kg | 2 µmol/kg | >4 µmol/kg | 4 µmol/kg | 2 µmol/kg | 4 µmol/kg |  |  | 
4 | CN(C)CCCN1c2ccccc2Sc2ccc(Cl)cc21 [Chlorpromazine, reference compound] | 6.2 µmol/kg | 6.2 µmol/kg |  |  |  |  |  |  |  |  | 
5 | OCCN1CCN(C2C=CC3(CC2)c2ccccc2CCc2ccc(Cl)cc23)CC1 (stereo not shown) [Example 4] | 24 µmol/kg | 70 µmol/kg | 64 µmol/kg | 32 µmol/kg | 16 µmol/kg | 16 µmol/kg | 16 to 32 µmol/kg | 8 µmol/kg |  | as potent as clozapine | more potent than clozapine
